Reference: US6031084A, “Azoamide compound” (Wako Pure Chemical Industries, Ltd., priority 1998, dated 2000)

Legend:
[1] = Measurement of Solubility in various kinds of polar solvents; assay type: physicochemical; settings: for Solubility in 2-butanol: solvent: 2-butanol; for Solubility in Acetone: solvent: Acetone; for Solubility in Methanol: solvent: Methanol; for Solubility in Tetrahydrofuran: solvent: Tetrahydrofuran; for Solubility in Water: solvent: Water
Description: Solubilities of 2,2'-azobis[N-(butanol-2-yl)-2-methylpropionamide] (hereinafter abbreviated as Present compound 1) obtained by Example 1 and 2,2'-azobis[N-(propanol-2-yl)-2-methylpropionamide] (hereinafter abbreviated as Present compound 2) obtained by Example 2 to various kinds of polar solvent was measured.
The same measurement of solubility as Experiment 1 was conducted except for using of 2,2'-azobis[2-methyl-N-(2-hydroxyethyl)-propionamide] [drawing 9] (hereinafter abbreviated as Known compound 1), 2,2'-azobis {2-methyl-N-[1,1-bis(hydroxymethyl)-2-hydroxyethyl] propionamide} [drawing 10] (hereinafter abbreviated as Known compound 2) and 2,2'-azobis {2-methyl-N-[1,1-bis(hydroxymethyl)ethyl] propionamide} [drawing 11] (hereinafter abbreviated as Known compound 3) in place of Present compound 1.

[2] = 10 hours half life temperature (thermal decomposition); assay type: physicochemical

Structure (SMILES)	Solubility in a various kind of polar solvents compared with Known compounds 1, 2 and 3 (in words) [1]	Solubility in rather low polar solvents such as 2-butanol (in words) [1]	Solubility in 2-butanol [1]	Solubility in Acetone [1]	Solubility in Methanol [1]	Solubility in Tetrahydrofuran [1]	Solubility in Water [1]	10 hours half life temperature [2]
CC(CO)NC(=O)C(C)(C)N=NC(C)(C)C(=O)NC(C)CO (racemic) [Present compound 2, 2,2'-azobis[N-(propanol-2-yl)-2-methylpropionamide]]	remarkably higher	soluble	< 0.l	0.3 g	6.5 g	0.3 g	0.6 g	83.1 °C
CC(C)(N=NC(C)(C)C(=O)NCCO)C(=O)NCCO [Known compound 1, 2,2'-azobis[2-methyl-N-(2-hydroxyethyl)-propionamide]]			insoluble	insoluble	4.55 g	insoluble	2.4 g	
CC[C@H](CO)NC(=O)C(C)(C)N=NC(C)(C)C(=O)N[C@H](CC)CO [Present compound 1, 2,2'-azobis[N-(butanol-2-yl)-2-methylpropionamide]]	remarkably higher	soluble	> 10 g	> 10 g	> 10 g	> 10 g	> 10 g	84.7 °C

Second part, the molecule after the results:

Solubility in a various kind of polar solvents compared with Known compounds 1, 2 and 3 (in words) [1]	Solubility in rather low polar solvents such as 2-butanol (in words) [1]	Solubility in 2-butanol [1]	Solubility in Acetone [1]	Solubility in Methanol [1]	Solubility in Tetrahydrofuran [1]	Solubility in Water [1]	10 hours half life temperature [2]	Structure (SMILES)
		insoluble	insoluble	1.89 g	insoluble	2.0 g		CC(C)(N=NC(C)(C)C(=O)NC(CO)(CO)CO)C(=O)NC(CO)(CO)CO [Known compound 2, 2,2'-azobis {2-methyl-N-[1,1-bis(hydroxymethyl)-2-hydroxyethyl]propionamide}]
		insoluble	insoluble	5.18 g	insoluble	0.6 g		CC(CO)(CO)NC(=O)C(C)(C)N=NC(C)(C)C(=O)NC(C)(CO)CO [Known compound 3, 2,2'-azobis {2-methyl-N-[1,1-bis(hydroxymethyl)ethyl]propionamide}]
